From ChEMBL document CHEMBL3217727, “Berberine azoles as antimicrobial agents: synthesis, biological evaluation and their interactions with human serum albumin” (Medchemcomm, 2013)
In brackets after ≈: the same amount, converted by molar mass.

Assays:
Micrococcus luteus = test: Antimicrobial activity against Micrococcus luteus ATCC 4698 after 24 hrs by microbroth dilution method; assay type: functional; details: NCTC 2665, 24 h
Bacillus spizizenii = test: Antimicrobial activity against Bacillus subtilis ATCC 6633 after 24 hrs by microbroth dilution method; assay type: functional; details: ATCC 6633, 24 h
Pseudomonas aeruginosa = test: Antimicrobial activity against Pseudomonas aeruginosa ATCC 27853 after 24 hrs by microbroth dilution method; assay type: functional; details: ATCC 27853, 24 h
Escherichia coli = test: Antimicrobial activity against Escherichia coli […] after 24 hrs by microbroth dilution method; assay type: functional
Saccharomyces cerevisiae = test: Antimicrobial activity against Saccharomyces cerevisiae ATCC 9763 after 24 hrs by microbroth dilution method; assay type: functional; details: ATCC 9763, 24 h
Staphylococcus aureus [1] = test: Antimicrobial activity against methicillin-resistant Staphylococcus aureus N315 after 24 hrs by microbroth dilution method; assay type: functional; details: N315, 24 h
Proteus vulgaris [2] = test: Antimicrobial activity against Proteus vulgaris ATCC 8427 after 24 hrs by microbroth dilution method; assay type: functional; details: ATCC 8427, 24 h
Cyberlindnera jadinii = test: Antimicrobial activity against Candida utilis ATCC 9950 after 24 hrs by microbroth dilution method; assay type: functional; details: Williopsis jadinii, ATCC 9950, 24 h
Candida = test: Antimicrobial activity against Candida mycoderma after 24 hrs by microbroth dilution method; assay type: functional
Candida albicans = test: Antimicrobial activity against Candida albicans ATCC 90029 after 24 hrs by microbroth dilution method; assay type: functional; details: ATCC 90029, 24 h
Staphylococcus aureus [3] = test: Antimicrobial activity against Staphylococcus aureus ATCC 25923 after 24 hrs by microbroth dilution method; assay type: functional; details: ATCC 25923, 24 h
Shigella dysenteriae = test: Antimicrobial activity against Shigella dysenteriae ATCC 51252 after 24 hrs by microbroth dilution method; assay type: functional; details: ATCC 51252, 24 h
Proteus vulgaris [4] = test: Ratio of berberine MIC to compound MIC for Proteus vulgaris ATCC 8427; assay type: functional
Proteus vulgaris [5] = test: Ratio of chloromycin MIC to compound MIC for Proteus vulgaris ATCC 8427; assay type: functional
Albumin = Albumin (Homo sapiens, UniProt P02768); test: Binding affinity to human serum albumin at 0.2 to 1.8 10^-5 mol/L at pH 7.4 at 294 K by UV-vis spectroscopic analysis; assay type: ADME; details: isolated protein
Proteus vulgaris [6] = test: Ratio of norfloxacin MIC to compound MIC for Proteus vulgaris ATCC 8427; assay type: functional

Sequence of Albumin (P02768 whole entry): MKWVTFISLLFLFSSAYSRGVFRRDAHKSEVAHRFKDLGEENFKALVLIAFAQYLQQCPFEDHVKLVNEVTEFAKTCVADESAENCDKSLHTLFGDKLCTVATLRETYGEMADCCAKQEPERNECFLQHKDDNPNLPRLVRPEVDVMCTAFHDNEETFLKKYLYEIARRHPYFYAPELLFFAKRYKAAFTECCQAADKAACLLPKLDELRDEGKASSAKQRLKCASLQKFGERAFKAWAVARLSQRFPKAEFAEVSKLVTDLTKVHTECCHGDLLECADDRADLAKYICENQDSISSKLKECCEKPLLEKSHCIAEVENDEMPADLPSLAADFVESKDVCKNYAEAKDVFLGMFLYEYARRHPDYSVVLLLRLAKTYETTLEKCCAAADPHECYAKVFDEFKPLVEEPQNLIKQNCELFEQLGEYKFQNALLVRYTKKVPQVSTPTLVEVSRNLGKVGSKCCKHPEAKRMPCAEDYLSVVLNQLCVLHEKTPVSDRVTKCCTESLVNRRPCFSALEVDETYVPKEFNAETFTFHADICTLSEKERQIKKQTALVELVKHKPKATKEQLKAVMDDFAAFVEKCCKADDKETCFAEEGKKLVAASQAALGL

| SMILES | MIC (Micrococcus luteus) [µg/mL] | MIC (Bacillus spizizenii) [µg/mL] | MIC (Pseudomonas aeruginosa) [µg/mL] | MIC (Escherichia coli) [µg/mL] | MIC80 (Saccharomyces cerevisiae) [µg/mL] | MIC (Staphylococcus aureus [1]) [µg/mL] | MIC (Proteus vulgaris [2]) [µg/mL] | MIC80 (Cyberlindnera jadinii) [µg/mL] | MIC80 (Candida) [µg/mL] | MIC80 (Candida albicans) [µg/mL] | MIC (Staphylococcus aureus [3]) [µg/mL] | MIC (Shigella dysenteriae) [µg/mL] | Ratio (Proteus vulgaris [4]) | Ratio (Proteus vulgaris [5]) | Activity (Albumin) | Ratio (Proteus vulgaris [6]) |
| --- | --- | --- | --- | --- | --- | --- | --- | --- | --- | --- | --- | --- | --- | --- | --- | --- |
| O=C(N[C@H](CO)[C@H](O)c1ccc([N+](=O)[O-])cc1)C(Cl)Cl [CHLORAMPHENICOL] | 8 (≈ 24.8 µM) | 32 (≈ 99 µM) |  |  |  |  |  |  |  |  |  |  |  |  |  |  |
| COc1ccc2cc3[n+](cc2c1OCCN(CCSc1nc2ccccc2[nH]1)Cc1ccc(F)cc1F)CCc1cc2c(cc1-3)OCO2.[Cl-] | 128 | 64 | 64 | 32 | 64 | 64 | 64 | 64 | 128 | 64 | 32 | 128 |  |  |  |  |
| COc1ccc2cc3[n+](cc2c1OCCN(CCn1cncn1)Cc1cccc(Cl)c1)CCc1cc2c(cc1-3)OCO2.[Cl-] | 32 | 16 |  |  | 32 |  |  | 8 | 4 | 16 |  |  |  |  |  |  |
| COc1ccc2cc3[n+](cc2c1OCCN(CCn1cncn1)Cc1ccc(Cl)c(Cl)c1)CCc1cc2c(cc1-3)OCO2.[Cl-] | 16 | 8 |  |  | 32 |  |  | 32 | 4 | 8 |  |  |  |  |  |  |
| Clc1ccc(CN(CCBr)CCn2cncn2)c(Cl)c1 | 32 (≈ 84.6 µM) | 256 (≈ 677 µM) |  |  | 256 (≈ 677 µM) |  |  | 256 (≈ 677 µM) | 256 (≈ 677 µM) | 32 (≈ 84.6 µM) |  |  |  |  |  |  |
| CCn1cc(C(=O)O)c(=O)c2cc(F)c(N3CCNCC3)cc21 [NORFLOXACIN] | 2 (≈ 6.26 µM) | 1 (≈ 3.13 µM) |  |  |  |  |  |  |  |  |  |  |  |  |  |  |
| COc1ccc2cc3[n+](cc2c1OCCN(CCn1cncn1)Cc1ccccc1F)CCc1cc2c(cc1-3)OCO2.[Cl-] | 8 | 8 |  |  | 16 |  |  | 16 | 2 | 4 |  |  |  |  |  |  |
| COc1ccc2cc3[n+](cc2c1OCCN(CCn1cncn1)Cc1ccc(F)cc1F)CCc1cc2c(cc1-3)OCO2.[Cl-] | 8 | 8 |  |  | 32 |  |  | 8 | 2 | 4 |  |  | 64 | 16 | Active | 4 |
| OC(Cn1cncn1)(Cn1cncn1)c1ccc(F)cc1F [FLUCONAZOLE] |  |  |  |  | 16 (≈ 52.2 µM) |  |  | 8 (≈ 26.1 µM) | 4 (≈ 13.1 µM) | 1 (≈ 3.27 µM) |  |  |  |  |  |  |
| COc1ccc2cc3[n+](cc2c1OC)CCc1cc2c(cc1-3)OCO2 [BERBERINE] | > 512 | > 512 |  |  | 128 |  |  | 256 | 128 | > 512 |  |  |  |  |  |  |
| COc1ccc2cc3[n+](cc2c1OCCN(CCn1nnc2ccccc21)Cc1ccc(F)cc1F)CCc1cc2c(cc1-3)OCO2.[Cl-] | 128 | 128 | 64 | 128 | 16 | 64 | 128 | 32 | > 512 | > 512 | 64 | 32 |  |  |  |  |
| Fc1ccc(CN(CCBr)CCSc2nc3ccccc3[nH]2)c(F)c1 | > 512 | > 512 | > 512 | > 512 | 512 (≈ 1200 µM) | > 512 | > 512 | 512 (≈ 1200 µM) | > 512 | > 512 | > 512 | > 512 |  |  |  |  |
| COc1ccc2cc3[n+](cc2c1OCCN(CCn1cncn1)Cc1ccccc1Cl)CCc1cc2c(cc1-3)OCO2.[Cl-] | 32 | 8 |  |  | 16 |  |  | 32 | 8 | 16 |  |  |  |  |  |  |
| COc1ccc2cc3[n+](cc2c1OCCN(CCn1ccnc1)Cc1ccc(F)cc1F)CCc1cc2c(cc1-3)OCO2.[Cl-] | 32 | 16 | 16 | 32 | 32 | 16 | 32 | 32 | 32 | 32 | 8 | 16 |  |  |  |  |
| COc1ccc2cc3[n+](cc2c1OCCN(CCn1cncn1)Cc1ccc(Cl)cc1)CCc1cc2c(cc1-3)OCO2.[Cl-] | 16 | 8 |  |  | 32 |  |  | 16 | 32 | 32 |  |  |  |  |  |  |
